# Structures can show the parent of a compound that is named as a salt.
# Key:
# [1] = system: E. coli RNase P RNA, M1 RNA; assay: Inhibition of bacterial RNase P activity, IC50 determination (cleavage of pATSerUG by M1 RNA); assay type: biochemical; conditions: NI: No inhibition
# [2] = system: Escherichia coli (ATCC25922); assay: MIC, broth microdilution (CLSI), Escherichia coli; conditions: Escherichia coli, ATCC25922, read-out: E. coli ATCC 25922 MIC, Table XIII
# [3] = system: Staphylococcus aureus (ATCC25923); assay: MIC, broth microdilution (CLSI), Staphylococcus aureus ATCC25923; conditions: Staphylococcus aureus, ATCC25923, read-out: S. aureus ATCC 25923 MIC
Compound,IC50 [1],MIC [2],MIC [3],other results
"Cc1cccc(C(CC(=O)NC2CCNCC2)c2cn(Cc3ccccc3)c3cnccc23)c1 (stereo not shown) [Compound 90, 3-(1-benzyl-1H-pyrrolo[2,3-c]pyridin-3-yl)-N-(piperidin-4-yl)-3-(m-tolyl)propanamide hydrochloride salt]",950 µM,,,
"Cc1cccc(C(CC(=O)NCCN2CCCC2)c2cn(Cc3ccccc3)c3ccccc23)c1.Cl (stereo not shown) [Compound 3, 3-(1-benzyl-1H-indol-3-yl)-N-(2-(pyrrolidin-1-yl)ethyl)-3-(m-tolyl)propanamide hydrochloride salt]",,> 512 µg/mL,32 µg/mL,
"O=C(CC(c1cscn1)c1cn(Cc2ccccc2)c2ccccc12)NCCC1CCNCC1 (stereo not shown) [Compound 76, 3-(1-benzyl-1H-indol-3-yl)-N-(2-(piperidin-4-yl)ethyl)-3-(thiazol-4-yl) propanamide hydrochloride salt]",,,,IC50 ([1]; hydrochloride salt): 197 µM
"Cc1cccc(C(CC(=O)NC2CCNC(=O)C2)c2cn(CC3CCCCC3)c3ccc(Br)cc23)c1 (stereo not shown) [Compound 296, 3-(5-bromo-1-(cyclohexylmethyl)-1H-indol-3-yl)-N-(2-oxopiperidin-4-yl)-3-(m-tolyl)propanamide hydrochloride salt]",,> 512 µg/mL,> 512 µg/mL,
"CCOP(=O)(NCCC1CCN(C(=O)CC(c2cccc(C)c2)c2cn(CC3CCCCC3)c3ccccc23)CC1)OCC (stereo not shown) [Compound 227, diethyl (2-(1-(3-(1-(cyclohexylmethyl)-1H-indol-3-yl)-3-(m-tolyl)propanoyl)piperidin-4-yl)ethyl)phosphoramidate]",,> 512 µg/mL,318 µg/mL,
"O=C(CC(c1cn(Cc2ccccc2)c2ccccc12)C1CCNCC1)NCCC1CCNCC1 (stereo not shown) [Compound 77, 3-(1-benzyl-1H-indol-3-yl)-3-(piperidin-4-yl)-N-(2-(piperidin-4-yl)ethyl)propanamide hydrochloride salt]",140 µM,,,
"Cc1cccc(C(CC(=O)NC2CCCCC2)c2cn(CC3CCCCC3)c3ccccc23)c1 (stereo not shown) [Compound 208, N-cyclohexyl-3-(1-(cyclohexylmethyl)-1H-indol-3-yl)-3-(m-tolyl)propanamide]",,> 512 µg/mL,> 512 µg/mL,
"O=C(CCc1cn(Cc2ccccc2)c2ccccc12)NCCC1CCNCC1 [Compound 88, 3-(1-benzyl-1H-indol-3-yl)-N-(2-(piperidin-4-yl)ethyl)propanamide hydrochloride salt]",842 µM,,,
"COc1ccccc1-c1ccc2c(c1)c(C(CC(=O)N[C@H]1CC[C@H](N)CC1)c1cccc(C)c1)cn2CC1CCCCC1.Cl (stereo partly shown) [Compound 219, hydrochloride salt]",7 µM,,,
"O=C(CC(c1cccnc1)c1cn(Cc2ccccc2)c2ccccc12)NCCC1CCNCC1 (stereo not shown) [Compound 93, 3-(1-benzyl-1H-indol-3-yl)-N-(2-(piperidin-4-yl)ethyl)-3-(pyridin-3-yl) propanamide hydrochloride salt]",308 µM,,,
"Cc1cccc(C(CC(=O)NCCC2CCNCC2)c2cn(Cc3ccccc3)c3ncncc23)c1 (stereo not shown) [Compound 94, 3-(7-benzyl-7H-pyrrolo[2,3-d]pyrimidin-5-yl)-N-(2-(piperidin-4-yl)ethyl)-3-(m-tolyl)propanamide hydrochloride salt]",912 µM,,,
"O=C(CC(c1cscn1)c1cn(Cc2ccccc2)c2ccccc12)NCCC1CCNCC1 (stereo not shown) [Compound 95, 3-(1-benzyl-1H-indol-3-yl)-N-(2-(piperidin-4-yl)ethyl)-3-(thiazol-4-yl) propanamide hydrochloride salt]",,,,IC50 ([1]; hydrochloride salt): 1300 µM
"Cc1cccc(C(CC(=O)NC2CCNCC2)c2cn(CC3CCCCC3)c3cccnc23)c1 (stereo not shown) [Compound 98, 3-(1-(cyclohexylmethyl)-1H-pyrrolo[3,2-b]pyridin-3-yl)-N-(piperidin-4-yl)-3-(m-tolyl)propanamide hydrochloride salt]",269 µM,,,
"Cl.Cl.N[C@H]1CC[C@H](NCCC(c2cn(C3CCCCC3)c3ccccc23)C2CCCCC2)CC1 (stereo partly drawn) [Compound 378, ((1R,4R)-N1-(3-cyclohexyl-3-(1-cyclohexyl-1H-indol-3-yl)propyl)cyclohexane-1,4-diamine salt]",22 µM,,,

# Continued, in another order:
IC50 [1],MIC [2],MIC [3],Compound,other results
129 µM,,,"Cc1cccc(C(CC(=O)NCC2CCNCC2)c2cn(Cc3ccccc3)c3ccccc23)c1 (stereo not shown) [Compound 79, 3-(1-benzyl-1H-indol-3-yl)-N-(piperidin-4-ylmethyl)-3-(m-tolyl)propanamide hydrochloride salt]",
,> 512 µg/mL,15 µg/mL,"Cl.Nc1ccc(NC(=O)CCc2cn(CC3CCCCC3)c3ccc(Br)cc23)cn1 [Compound 298, N-(6-aminopyridin-3-yl)-3-(5-bromo-1-(cyclohexylmethyl)-1H-indol-3-yl)propanamide hydrochloride salt]",
100 µM,,,"Cc1cccc(C(CC(=O)N[C@H]2CC[C@@H](N)CC2)c2cn(Cc3ccccc3)c3ccccc23)c1 (stereo partly drawn) [Compound 54, N-((1S,4S)-4-aminocyclohexyl)-3-(1-benzyl-1H-indol-3-yl)-3-(m-tolyl)propanamide hydrochloride salt]",
950 µM,,,"O=C(CCc1cn(Cc2ccccc2)c2ccccc12)NC1CCNCC1 [Compound 102, 3-(1-benzyl-1H-indol-3-yl)-N-(piperidin-4-yl)propanamide hydrochloride salt]",
911 µM,,,"O=C(CC(c1cscn1)c1cn(Cc2ccccc2)c2ccccc12)NC1CCNCC1 (stereo not shown) [Compound 96, 3-(1-benzyl-1H-indol-3-yl)-N-(piperidin-4-yl)-3-(thiazol-4-yl) propanamide hydrochloride salt]",
,64 µg/mL,64 µg/mL,"Cl.N[C@H]1CC[C@H](NC(=O)CC(c2ccccc2)c2cn(CC3CCCCC3)c3ccccc23)CC1 (stereo partly drawn) [Compound 130, N-((1R,4R)-4-aminocyclohexyl)-3-(1-(cyclohexylmethyl)-1H-indol-3-yl)-3-phenylpropanamide hydrochloride salt]",
,> 512 µg/mL,> 512 µg/mL,"Cc1cccc(C(CC(=O)Nc2ccc(N3CCCCC3)cc2)c2cn(CC3CCCCC3)c3ccccc23)c1.Cl (stereo not shown) [Compound 158, 3-(1-(cyclohexylmethyl)-1H-indol-3-yl)-N-(4-(piperidin-1-yl)phenyl)-3-(m-tolyl)propanamide hydrochloride salt]",
,289 µg/mL,9 µg/mL,"Cl.NC1CCC(NC(=O)Cc2cn(CC3CCCCC3)c3ccc(-c4cccc(OC(F)(F)F)c4)cc23)CC1 [Compound 240, N-((1S,4S)-4-aminocyclohexyl)-2-(1-(cyclohexylmethyl)-5-(3-(trifluoromethoxy)phenyl)-1H-indol-3-yl)acetamide hydrochloride salt]",
,> 512 µg/mL,> 512 µg/mL,"Cc1cccc(C(CC(=O)Nc2ccc(N3CCNCC3)cc2)c2cn(CC3CCCCC3)c3ccccc23)c1.Cl (stereo not shown) [Compound 155, 3-(1-(cyclohexylmethyl)-1H-indol-3-yl)-N-(4-(piperazin-1-yl)phenyl)-3-(m-tolyl)propanamide hydrochloride salt]",
343 µM,,,"N[C@H]1CC[C@@H](NC(=O)CC(c2cccnc2)c2cn(Cc3ccccc3)c3ccccc23)CC1 (stereo partly shown) [Compound 75, N-((1s,4s)-4-aminocyclohexyl)-3-(1-benzyl-1H-indol-3-yl)-3-(pyridin-3-yl)propanamide hydrochloride salt]",
1080 µM,,,"CCn1cc(C(CC(=O)NC2CCNCC2)c2cccc(C)c2)c2ccccc21 (stereo not shown) [Compound 91, 3-(1-ethyl-1H-indol-3-yl)-N-(piperidin-4-yl)-3-(m-tolyl)propanamide hydrochloride salt]",
